Data reported in PubChem BioAssay (NCI).
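In this assay, cells in 96-well plates receive the compound at five concentrations for 48 hours. Endpoints are linearly interpolated between the surrounding concentrations. GI50: concentration for 50% inhibition of growth. TGI denotes the concentration required for complete inhibition of growth.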

What was measured:
Assay in all cases: NCI tumour cell line growth inhibition, 48 h
[1] = system: DMS 114 small cell lung
[2] = system: LXFL 529 NSCLC
[3] = system: RXF-631 renal
[4] = system: HOP-18 NSCLC
[5] = system: DMS 273 small cell lung
[6] = system: DLD-1 colon
[7] = system: XF 498 CNS
[8] = system: SN12K1 renal
[9] = system: P388/ADR leukemia
[10] = system: P388 leukemia

O=C1c2ccccc2C2C1N2C(=O)C(F)(F)F (stereo not drawn)
TGI [1]: > 100 µM | TGI [2]: > 100 µM | TGI [3]: > 100 µM | TGI [4]: > 100 µM | TGI [5]: > 100 µM | TGI [6]: > 100 µM | TGI [7]: > 100 µM

Cc1cc(=O)[nH]c(NN2C(Cl)C(=O)C2c2ccccc2O)n1 (stereo not drawn)
TGI [1]: 6.44 µM | TGI [2]: 54.5 µM | TGI [4]: 8.97 µM | TGI [5]: 15.3 µM

Cc1c2cnccc2c(C)c2c1c1ccccc1n2CCCN
TGI [8]: 0.831 µM | TGI [1]: 1.02 µM | TGI [9]: 0.707 µM | TGI [4]: 2.65 µM | TGI [10]: 0.212 µM | TGI [5]: 0.619 µM | TGI [6]: 0.847 µM | TGI [7]: 1.4 µM

CC1C=C(CCCCCCCCCCCC[C@@H](O)[C@@H]2CC[C@@H]([C@@H]3CC[C@@H](C(O)CCCCCCCCCCCCC4=C[C@H](C)OC4=O)O3)O2)C(=O)O1 (stereo partly drawn)
TGI [1]: > 100 µM | TGI [2]: > 100 µM | TGI [4]: > 100 µM | TGI [5]: > 100 µM | TGI [6]: > 100 µM | TGI [7]: > 100 µM

[N-]=[N+]=Nc1cc(=O)oc2ccccc12
TGI [1]: > 100 µM | TGI [2]: > 100 µM | TGI [4]: > 100 µM | TGI [5]: > 100 µM | TGI [6]: > 100 µM

N#CN=C(N(Cc1ccccc1)Cc1ccccc1)N(Cc1ccccc1)Cc1ccccc1
TGI [1]: > 100 µM | TGI [2]: > 100 µM | TGI [4]: > 100 µM | TGI [6]: > 100 µM | TGI [7]: 89.8 µM

CC(N)Cc1ccc(C(=O)Cl)cc1 (stereo not drawn)
TGI [1]: > 100 µM | TGI [2]: > 100 µM | TGI [3]: > 100 µM | TGI [6]: > 100 µM | TGI [7]: > 100 µM

O=C([O-])CC(=O)[O-].O=C([O-])CC(=O)[O-].[K+].[Pd+2]
GI50 [2]: > 100 µM | TGI [2]: > 100 µM | GI50 [4]: > 100 µM | TGI [4]: > 100 µM | GI50 [5]: > 100 µM | TGI [5]: > 100 µM | GI50 [6]: > 100 µM | TGI [6]: > 100 µM

CCN(CC)CCC(=O)Nc1ccc2c(c1)C(=O)c1ccc(NC(=O)CCN(CC)CC)cc1C2=O
TGI [1]: 13 µM | TGI [2]: 12 µM | TGI [4]: 18.4 µM | TGI [5]: 3.82 µM | TGI [6]: 10.2 µM

COc1nc(N)c(C(=O)CCl)c(=O)n1C
TGI [1]: 33.9 µM | TGI [2]: 27.1 µM | TGI [3]: 31.6 µM | TGI [4]: 31.2 µM | TGI [6]: 27.6 µM | TGI [7]: 32.6 µM

C[n+]1c2ccccc2c(/C=N\NS(=O)(=O)c2ccc(O)c(C(=O)O)c2)c2ccccc21
TGI [1]: > 100 µM | TGI [3]: > 100 µM | TGI [5]: > 100 µM | TGI [6]: > 100 µM | TGI [7]: 83.8 µM

Cc1cccc2c(=O)cc(-c3ccccc3)[nH]c12
TGI [1]: > 100 µM | TGI [2]: > 100 µM | TGI [5]: > 100 µM | TGI [6]: > 100 µM | TGI [7]: > 100 µM

CC(C)CCCCCCCCCCCCC(=O)NCC(=O)NC1C(C)OC(Nc2ncnc3c2ncn3C)C(O)C1O (stereo not drawn)
TGI [8]: > 100 µM | TGI [1]: > 100 µM | TGI [9]: > 100 µM | TGI [4]: > 30.1 µM | TGI [10]: > 100 µM | TGI [5]: 21.6 µM | TGI [6]: > 100 µM | TGI [7]: > 62 µM

O=C1CCC23CC(C=CC=C12)n1c(=O)n(-c2ccccc2)c(=O)n13 (stereo not drawn)
TGI [8]: > 100 µM | TGI [1]: > 100 µM | TGI [9]: > 100 µM | TGI [4]: > 100 µM | TGI [10]: > 100 µM | TGI [5]: > 100 µM | TGI [6]: > 100 µM | TGI [7]: > 100 µM

CC(=O)NC1=C(NCCC(C)C)C(=O)c2ccccc2C1=O
TGI [2]: > 50 µM | TGI [5]: > 50 µM | TGI [6]: > 50 µM | TGI [7]: > 50 µM

COc1cc([C@@H]2OCC3C(c4ccc5c(c4)OCO5)OCC32)cc(OC)c1OC (stereo partly drawn)
TGI [1]: > 100 µM | TGI [2]: > 100 µM | TGI [5]: > 100 µM | TGI [6]: > 100 µM | TGI [7]: > 100 µM

O=C(Nc1ccc(C2=NCCN2)cc1)c1cncc(C(=O)Nc2ccc(C3=NCCN3)cc2)c1
TGI [8]: > 100 µM | TGI [1]: > 100 µM | TGI [9]: > 100 µM | TGI [4]: > 100 µM | TGI [10]: 82.5 µM | TGI [5]: > 100 µM | TGI [6]: > 100 µM | TGI [7]: > 100 µM

C[C@]12CC[C@H](O)CC1=CC[C@@H]1C2CC[C@]2(C)C(=O)N(N)C(=O)CC12 (stereo partly drawn)
TGI [2]: > 100 µM | TGI [3]: > 100 µM | TGI [4]: > 100 µM | TGI [5]: > 100 µM | TGI [6]: > 100 µM | TGI [7]: > 100 µM
